According to patent US20230346670A1, “Prebiotic Oral Care Compositions and Methods” (Colgate-Palmolive Company, priority 2020, published 2023):

How the values were obtained:
Type in all cases: cell-based
A. actinomycetemcomitans = experiment: Multi-species biofilm composition, absolute abundance (Geq/mL); conditions: repeated rinsing
Procedure: (§1) Biofilms are grown vertically on Calcium Deficient Hydroxyapatite (CAD-HA) disks (Hitemco Medical, Old Bethpage, USA) using the Amsterdam Active Adhesion model. Biofilms are allowed to establish during 24 h (37° C., 170 rpm) under microaerophilic conditions (6% O2, 7% CO2, 7% H2, 80% N2). After this 24 h, disks are rinsed 3 times a day for 3 minutes (RT, 250 rpm), for 3 consecutive days, by transferring the lid containing the disks to a new 24-well plate containing 2 mL/well of the appropriate substrate solution. As a negative control, PBS (pH 5.7) without substrate supplementation is used.
(§2) N-acetyl-D-glucosamine (NADG), α-D-lactose, D-(+)-trehalose and D-(+)-raffinose are selected to determine their effects on multi-species biofilm composition. Repeated rinsing of the biofilms with the substrates at a concentration of 1 M results in a significant decrease in absolute numbers in at least four of the pathogenic bacterial species tested in the assay, in comparison to the control, the results of which are described in Table 1 below. Note, NADG decreased absolute numbers of S. sobrinus. Absolute abundances of bacterial species are shown as mean ± SD (n = 3) logarithmic values of the genome equivalents per millilitre (log(Geq/mL)).

A. naeslundii = experiment: as above; conditions: repeated rinsing
Procedure: as §1, §2

P. gingivalis = experiment: as above; conditions: repeated rinsing
Procedure: as §1, §2

P. intermedia = experiment: as above; conditions: repeated rinsing
Procedure: as §1, §2

S. gordonii = experiment: as above; conditions: repeated rinsing
Procedure: as §1, §2

S. mitis = experiment: as above; conditions: repeated rinsing
Procedure: as §1, §2

S. oralis = experiment: as above; conditions: repeated rinsing
Procedure: as §1, §2

S. sobrinus = experiment: as above; conditions: repeated rinsing
Procedure: as §1, §2

[1] = system: multi-species biofilm (beneficial/commensal species, periodontal pathogens, cariogenic pathogens); experiment: Multi-species biofilm composition, relative proportions and group changes
Procedure: Biofilms are grown vertically on Calcium Deficient Hydroxyapatite (CAD-HA) disks (Hitemco Medical, Old Bethpage, USA) using the Amsterdam Active Adhesion model. […] After this 24 h, disks are rinsed 3 times a day for 3 minutes (RT, 250 rpm), for 3 consecutive days, by transferring the lid containing the disks to a new 24-well plate containing 2 mL/well of the appropriate substrate solution. As a negative control, PBS (pH 5.7) without substrate supplementation is used. N-acetyl-D-glucosamine (NADG), α-D-lactose, D-(+)-trehalose and D-(+)-raffinose are selected to determine their effects on multi-species biofilm composition. Repeated rinsing of the biofilms with the substrates at a concentration of 1 M results in a significant decrease in absolute numbers in at least four of the pathogenic bacterial species tested in the assay, in comparison to the control, the results of which are described in Table 1 below. Note, NADG decreased absolute numbers of S. sobrinus. Absolute abundances of bacterial species are shown as mean ± SD (n = 3) logarithmic values of the genome equivalents per millilitre (log(Geq/mL)).

[2] = system: P. intermedia virulence genes; experiment: Virulence gene expression in multi-species biofilm (SYBR RT-qPCR); conditions: for fold change in DnaJ expression, geometric mean (95% C.I.) / fold change in DnaK expression, geometric mean (95% C.I.) / fold change in ECF expression, geometric mean (95% C.I.) / fold change in GroES expression, geometric mean (95% C.I.) / fold change in HtpG expression, geometric mean (95% C.I.) / fold change in KpsD expression, geometric mean (95% C.I.) / fold change in adpc expression, geometric mean (95% C.I.) / fold change in clpB expression, geometric mean (95% C.I.) / fold change in inpA expression, geometric mean (95% C.I.) / fold change in phg expression, geometric mean (95% C.I.): relative to control = 1
Procedure: as §1
The virulence of the substrate-treated multi-species biofilms are evaluated by analyzing the relative expression of 33 genes that are recognized as being related to some form of virulence and from 4 periodontal pathogens.
Expression of bacterial virulence genes is analyzed through SYBR RT-qPCR and normalized for bacterial housekeeping gene expression. […] These effects are illustrated in Tables 6a and 6b:
Note, for Table 6d, fold changes in virulence gene expression are determined relatively to the control condition through the 2^^-ΔΔCt method and are shown as the geometric mean (C.I.) (n = 3) of the 2^^-ΔΔCt values. All substrates are dissolved in PBS at a concentration of 1 M (upper part) or 1%(w/v) (lower part). Values between 0 and 1 represent relative downregulation, values >1 represent relative upregulation. […] NADG: N-acetyl-D-glucosamine; C.I.: 95% confidence interval.

[3] = Table 1a, substrate 1 M, listed as D-(+)-trehalose
[4] = Table 3, separate experiments, concentration not given
[5] = lower part of Table 6d, head prints 1 M (lower part 1%(w/v))
[6] = upper part of Table 6d, substrate 1 M, n = 3

OC[C@H]1O[C@H](O[C@H]2O[C@H](CO)[C@@H](O)[C@H](O)[C@H]2O)[C@H](O)[C@@H](O)[C@@H]1O [D-trehalose, D-(+)-trehalose]
absolute abundance of A. actinomycetemcomitans (Aa), mean ± SD log (Geq/mL) (A. actinomycetemcomitans; substrate 1% (w/v)): 9.28 ± 0.43 log (Geq/mL) | absolute abundance of A. actinomycetemcomitans (Aa), mean ± SD log (Geq/mL) (A. actinomycetemcomitans; substrate 1 M in PBS, n = 3): 7.86 ± 0.22^∗ log (Geq/mL) | absolute abundance of A. naeslundii (An), mean ± SD log (Geq/mL) (A. naeslundii; substrate 1% (w/v)): 7.6 ± 0.15 log (Geq/mL) | absolute abundance of A. naeslundii (An), mean ± SD log (Geq/mL) (A. naeslundii; substrate 1 M in PBS, n = 3): 4.81 ± 0.47^∗ log (Geq/mL) | absolute abundance of P. gingivalis (Pg), mean ± SD log (Geq/mL) (P. gingivalis; substrate 1% (w/v)): 7.05 ± 0.19 log (Geq/mL) | absolute abundance of P. gingivalis (Pg), mean ± SD log (Geq/mL) (P. gingivalis; substrate 1 M in PBS, n = 3): 4.37 ± 0.29^∗ log (Geq/mL) | absolute abundance of P. intermedia (Pi), mean ± SD log (Geq/mL) (P. intermedia; substrate 1% (w/v)): 7.88 ± 0.33 log (Geq/mL) | absolute abundance of P. intermedia (Pi), mean ± SD log (Geq/mL) (P. intermedia; substrate 1 M in PBS, n = 3): 4.47 ± 0.60^∗ log (Geq/mL) | absolute abundance of S. gordonii, mean ± SD log (Geq/mL) (S. gordonii; substrate 1% (w/v)): 8.45 ± 0.27 log (Geq/mL) | absolute abundance of S. gordonii, mean ± SD log (Geq/mL) (S. gordonii; substrate 1 M in PBS, n = 3): 9.39 ± 0.31 log (Geq/mL) | absolute abundance of S. mitis, mean ± SD log (Geq/mL) (S. mitis; substrate 1% (w/v)): 2.65 ± 0.00 log (Geq/mL) | absolute abundance of S. mitis, mean ± SD log (Geq/mL) (S. mitis; substrate 1 M in PBS, n = 3): 3.15 ± 0.71 log (Geq/mL) | absolute abundance of S. oralis, mean ± SD log (Geq/mL) (S. oralis; substrate 1% (w/v)): 6.59 ± 0.42 log (Geq/mL) | absolute abundance of S. oralis, mean ± SD log (Geq/mL) (S. oralis; substrate 1 M in PBS, n = 3): 6.71 ± 0.48 log (Geq/mL) | absolute abundance of S. sobrinus, mean ± SD log (Geq/mL) (S. sobrinus; substrate 1% (w/v)): 5.27 ± 0.19 log (Geq/mL) | absolute abundance of S. sobrinus, mean ± SD log (Geq/mL) (S. sobrinus; substrate 1 M in PBS, n = 3): 7.44 ± 0.18^∗ log (Geq/mL) | relative proportion of beneficial or commensal species in biofilm ([1]; Table 1a, substrate 1 M): 88.98 (+/- 9.12)^∗ % (Geq/mL) | relative proportion of cariogenic pathogens in biofilm ([1]; Table 1a, substrate 1 M): 9.22 (+/- 8.55) % (Geq/mL) | relative proportion of periodontal pathogens in biofilm ([1]; Table 1a, substrate 1 M): 1.80 (+/- 1.04)^∗ % (Geq/mL) | relative proportion of beneficial or commensal species in biofilm [1, 3]: 88.98±9.12 % (Geq/mL) | relative proportion of cariogenic pathogens in biofilm [1, 3]: 9.22±8.55 % (Geq/mL) | relative proportion of periodontal pathogens in biofilm [1, 3]: 1.80±1.04 % (Geq/mL) | relative proportion of beneficials/commensals in biofilm [1, 4]: 73.55 (+/- 2.84) % (Geq/mL) | relative proportion of cariogenic pathogens in biofilm [1, 4]: 0.21 (+/- 0.05) % (Geq/mL) | relative proportion of periodontal pathogens in biofilm [1, 4]: 26.23 (+/- 2.88) % (Geq/mL) | fold change in DnaJ expression, geometric mean (95% C.I.) [2, 5]: 0.62 (0.08-4.67) fold | fold change in DnaK expression, geometric mean (95% C.I.) [2, 5]: 0.78 (0.44-1.36) fold | fold change in ECF expression, geometric mean (95% C.I.) [2, 5]: 0.69 (0.53-0.91) fold | fold change in GroES expression, geometric mean (95% C.I.) [2, 5]: 1.22 (0.61-2.45) fold | fold change in HtpG expression, geometric mean (95% C.I.) [2, 5]: 0.69 (0.42-1.12) fold | fold change in KpsD expression, geometric mean (95% C.I.) [2, 5]: 1.26 (0.52-3.08) fold | fold change in adpc expression, geometric mean (95% C.I.) [2, 5]: 0.64 (0.29-1.4) fold | fold change in clpB expression, geometric mean (95% C.I.) [2, 5]: 1.30 (0.44-3.83) fold | fold change in inpA expression, geometric mean (95% C.I.) [2, 5]: 0.56 (0.31-1.01)^∗ fold | fold change in phg expression, geometric mean (95% C.I.) [2, 5]: 0.86 (0.82-0.89) fold | impact on P. intermedia virulence gene expression ([2]; substrate 1% (w/v)): limited impact | downregulation of P. intermedia virulence gene expression ([2]; substrate 1 M): 5 fold | fold change in DnaJ expression, geometric mean (95% C.I.) [2, 6]: 1.81 (1.21-2.71) fold | fold change in DnaK expression, geometric mean (95% C.I.) [2, 6]: 8.82 (6.83-11.38)^∗ fold | fold change in ECF expression, geometric mean (95% C.I.) [2, 6]: 6.97 (1.65-29.40)^∗ fold | fold change in GroES expression, geometric mean (95% C.I.) [2, 6]: 11.52 (2.46-53.90)^∗ fold | fold change in HtpG expression, geometric mean (95% C.I.) [2, 6]: 0.67 (0.43-1.03) fold | fold change in KpsD expression, geometric mean (95% C.I.) [2, 6]: 0.59 (0.47-0.75) fold | fold change in adpc expression, geometric mean (95% C.I.) [2, 6]: 1.45 (0.76-2.77) fold | fold change in clpB expression, geometric mean (95% C.I.) [2, 6]: 1.90 (0.77-4.68) fold | fold change in inpA expression, geometric mean (95% C.I.) [2, 6]: 0.81 (0.41-1.63) fold | fold change in phg expression, geometric mean (95% C.I.) [2, 6]: 0.20 (0.14-0.29)^∗ fold
